Measured values published in paper PMC6751662, “Pharmacological and functional similarities of the human neuropeptide Y system in C. elegans challenges phylogenetic views on the FLP/NPR system” (Cell Communication and Signaling : CCS, 2019).

Key:
Assay type in all cases: cell-based, C. elegans
[1] = target: T1, NPR-11 (Caenorhabditis elegans, UniProt Q18179); test: IP accumulation assay, co-transfected Gα16, NPR-11; settings: 1 h, HBSS + 20 mM LiCl, HEK293 receptor + Gα16, HTRF IP-One, mean of >=3 independent experiments
T1 construct: expressed in transfected cells; host or cells: HEK293, transient
T1 sequence (Q18179 1-402): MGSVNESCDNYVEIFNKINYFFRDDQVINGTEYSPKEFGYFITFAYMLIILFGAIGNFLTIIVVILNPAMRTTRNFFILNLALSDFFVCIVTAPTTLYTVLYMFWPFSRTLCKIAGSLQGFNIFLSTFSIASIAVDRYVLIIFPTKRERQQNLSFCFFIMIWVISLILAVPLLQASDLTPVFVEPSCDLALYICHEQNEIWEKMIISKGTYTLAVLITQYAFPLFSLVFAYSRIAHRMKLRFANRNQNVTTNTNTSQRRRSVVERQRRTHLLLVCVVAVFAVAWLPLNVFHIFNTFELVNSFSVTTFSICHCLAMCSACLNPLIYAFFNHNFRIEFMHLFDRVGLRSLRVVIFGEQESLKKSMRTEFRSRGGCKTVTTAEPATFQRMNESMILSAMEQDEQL
Description: (§1) For measuring IP accumulation, HEK293 cells grown to 70–80% confluency in 6-well plates were transiently co-transfected using Metafectene Pro (2.5 μl/μg DNA; Biontex) with plasmids containing receptor and/or mock (empty pcDNA3.1) (for endogenous Gq-coupling) using 4 μg total DNA in a ratio of 3:1 following the manufacturer’s instructions. For testing Gα16- and GαΔ6qi4myr-coupling, plasmids encoding the corresponding Gα protein were co-transfected instead of mock. Gα16 is naturally promiscuous and stimulates the phospholipase C (PLC) pathway leading to IP production, while the exchange of the C-terminal four amino acids of Gαq for the corresponding residues of Gαi1 in the chimeric GαΔ6qi4myr confers the ability to couple to Gi/o protein-preferring receptors but still stimulate PLC, thus specifically redirecting downstream cellular signaling. 16 h post transfection, the cells were seeded into white 384-well plates at a density of 20,000 cells/well. Media was removed 24 h later and the cells were incubated with the indicated concentration of peptides for 1 h in HBSS + 20 mM LiCl. IP accumulation was measured with the HTRF-based IP-One Gq kit (Cisbio) on a microplate reader (Tecan Spark).
(§2) For in vitro activation, data is presented as mean ± SEM of at least three independent experiments conducted in technical triplicate. […]

[2] = target: T1, NPR-11; test: IP accumulation assay, endogenous Gαq + mock, NPR-11; settings: 1 h, HBSS + 20 mM LiCl, HEK293 receptor + empty vector, HTRF IP-One, mean of >=3 independent experiments
Description: as §1, §2

[3] = target: T2, NPR-1 (Caenorhabditis elegans, UniProt Q18534); test: IP accumulation assay, endogenous Gαq + mock, NPR-1; design: host or cells: HEK293; settings: 1 h, HBSS + 20 mM LiCl, HEK293 receptor + empty vector, HTRF IP-One, mean of >=3 independent experiments
T2 sequence (Q18534 1-457): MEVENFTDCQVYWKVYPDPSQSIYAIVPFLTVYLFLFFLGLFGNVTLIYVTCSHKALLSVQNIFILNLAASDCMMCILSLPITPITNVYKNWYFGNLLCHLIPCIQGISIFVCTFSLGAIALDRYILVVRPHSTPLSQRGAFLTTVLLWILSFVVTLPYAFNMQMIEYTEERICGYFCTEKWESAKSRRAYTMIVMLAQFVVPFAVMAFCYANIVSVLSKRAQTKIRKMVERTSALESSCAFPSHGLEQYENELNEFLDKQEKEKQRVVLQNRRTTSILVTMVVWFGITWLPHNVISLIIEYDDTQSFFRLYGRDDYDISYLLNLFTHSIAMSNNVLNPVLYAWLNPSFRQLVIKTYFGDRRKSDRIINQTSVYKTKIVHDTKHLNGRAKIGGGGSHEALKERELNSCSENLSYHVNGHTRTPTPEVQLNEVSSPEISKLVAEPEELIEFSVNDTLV
Description: as §1, §2

[4] = target: T2, NPR-1; test: IP accumulation assay, co-transfected Gα16, NPR-1; design: expressed in transfected cells; host or cells: HEK293; settings: 1 h, HBSS + 20 mM LiCl, HEK293 receptor + Gα16, HTRF IP-One, mean of >=3 independent experiments
Description: as §1, §2

[5] = target: T2, NPR-1; test: cAMP reporter gene assay, Gs (no forskolin), NPR-1; design: host or cells: HEK293; settings: no forskolin, 4 h, transiently transfected HEK293, CRE-luciferase reporter, mean of >=3 independent experiments
Description: Activation of Gs and Gi/o was assessed with a cAMP reporter gene assay. HEK293 cells grown to 70–80% confluency in 6-well plates were transiently co-transfected with vectors encoding the receptor and the cAMP reporter gene plasmid pGL4.29 [luc2P/CRE/Hygro] (Promega; 4 μg total, 1:1 ratio) using Metafectene Pro (3 μl/μg DNA; Biontex) following the manufacturer’s instructions. 16 h post transfection, the cells were seeded into white 384-well plates at a density of 20,000 cells/well. On the next day, the medium was removed and the cells were stimulated with 20 μl of peptide solution (or forskolin as positive control) in serum-free DMEM for 4 h. For measuring Gi/o activity, the peptide solutions additionally contained 1 μM forskolin to elevate cellular cAMP levels. After incubation, the luciferase substrate OneGlo in lysis buffer (Promega) was added and the luminescence was measured in a microplate reader Tecan Spark (Tecan). Data were analyzed with GraphPad Prism 5.03 and are shown as fold of basal or fold of forskolin in case of Gαi/o activity.
For in vitro activation, data is presented as mean ± SEM of at least three independent experiments conducted in technical triplicate. […] For the C. elegans NPRs, we considered the strongest response elicited by any of the peptides downstream of a particular receptor as the receptor’s maximal signal. This may or may not be the biological maximum that can be reached by the ‘true’ endogenous agonist. For the human receptors, the response to the established endogenous agonist reflected the maximal signal.

[6] = 0.1 nM peptide (so in the source)

IP assay endog. Gαq + Gα16, NPR-11 [1, 6]: 1.04 x-fold of basal
IP assay endog. Gαq + Gα16, NPR-11 ([1]; 10 µM peptide): 0.84 x-fold of basal
IP assay endog. Gαq + mock, NPR-11 [2, 6]: 1.05 x-fold of basal
IP assay endog. Gαq + mock, NPR-11 ([2]; 10 µM peptide): 1.09 x-fold of basal
IP assay endog. Gαq + mock, NPR-1 [3, 6]: 0.89 x-fold of basal
IP assay endog. Gαq + mock, NPR-1 ([3]; 10 µM peptide): 0.94 x-fold of basal
IP assay endog. Gαq + Gα16, NPR-1 [4, 6]: 0.90 x-fold of basal
IP assay endog. Gαq + Gα16, NPR-1 ([4]; 10 µM peptide): 0.81 x-fold of basal
cAMP assay Gs, NPR-1 ([5]; 0.1 µM peptide): 1.12 x-fold of basal
cAMP assay Gs, NPR-1 ([5]; 10 µM peptide): 1.05 x-fold of basal
Substance: APKPKFIRF-NH2 [FLP-5-1, C. elegans FMRFamide-like peptide, C-terminally amidated, synthesized by SPPS]
